Values quoted from earlier work as cited in patent US12528823B2, “Inhibitors of aldose reductase” (Applied Therapeutics, Inc., priority 2019, dated 2026).

Key:
[1] = system: ischemic injury (cerebral infarction); conditions: normal mice; single oral dose either 30 mins before ischemia or 1 h 45 mins after ischemia
[2] = positive control; published/known value; octanol/pH 7.4 phosphate buffer

In the case of `NC(=O)[C@@H]1C[C@]2(NC(=O)NC2=O)c2cc(F)ccc2O1` [Fidarestat], the “reduction in infarct volume resulting from ischemic injury” value [1] is listed as 16-25%.

For `C[C@]12CC[C@H]3[C@@H](CCC4=CC(=O)CC[C@@]43C)[C@@H]1CC[C@@H]2O` [Testosterone], the “Log D” value [2] is given as 3.0-3.4.
